The record followed here is patent US6835755B1, “Naphthoquinone derivatives and their use in the treatment and control of tuberculosis” (priority 1999, dated 2004).

Structures are written as SMILES. Converted amounts (≈) assume the structure as drawn.

The test deals with resistant strains of Mycobacterium tuberculosis. Put plainly: microbe, parasite or virus in culture. The format is cell-based. The following applies: for ΔGI values of plant extracts: at MIC, mean ± s.d.

With `Cc1cc(O)c2c(c1)C(=O)C=CC2=O` [7-methyljuglone, 5-hydroxy-7-methyl-1,4-naphtoquinone], the “ΔGI values of plant extracts” value (Two drug (isoniazid and rifampicin) resistant strain CCKO28469V) was found to be 0 ± 0. The “MIC (Minimal inhibitory concentration)” value (Two drug (isoniazid and rifampicin) resistant strain CCKO28469V, radiometric method) came out at 50 µg/mL (≈ 266 µM).

Take `Cc1cc(O)c2c(c1)C(=O)C(c1c(C)cc3c(c1O)C(=O)C=CC3=O)=CC2=O` [diospyrin, 5,5′ dihydroxy 7,7′ binaphthoquinone]: the “ΔGI values of plant extracts” value (2 drug resistant strain (res. to isoniazid and rifampicin)) was 3.5 mg/mL; the “ΔGI values of plant extracts” value (3 drug resistant strain (res. to streptomycin, isoniazid and ethambutol)) was determined as 4 ± 2.12 mg/mL; the “ΔGI values of plant extracts” value (4 drug resistant strain (res. to streptomycin, isoniazid, rifampicin and ethambutol)) came to 5 ± 2.82 mg/mL; the “ΔGI values of plant extracts” value (5 drug resistant strain (res to isoniazid, streptomycin, rifampicin, thiacetazone and cyclocerine)) amounted to 10 ± 1.41 mg/mL; the “ΔGI values of plant extracts” value (6 drug resistant strain (res. to isoniazid, rifampicin, ethionamide, terizidone, thiacetazone and ofloxacin)) turned out to be 9 ± 2.82 mg/mL; the “ΔGI values of plant extracts” value (7 drug resistant strain (res to isoniazid, streptomycin, ethambutol, kanamycin, rifampicin, and ethionamide)) is 13.5 ± 3.2 mg/mL. Further, the MIC was 100 µg/mL (≈ 267 µM) (3 drug resistant strain (res. to streptomycin, isoniazid and ethambutol), radiometric method); 100 µg/mL (≈ 267 µM) (4 drug resistant strain (res. to streptomycin, isoniazid, rifampicin and ethambutol), radiometric method); 100 µg/mL (≈ 267 µM) (5 drug resistant strain (res to isoniazid, streptomycin, rifampicin, thiacetazone and cyclocerine), radiometric method); 100 µg/mL (≈ 267 µM) (6 drug resistant strain (res. to isoniazid, rifampicin, ethionamide, terizidone, thiacetazone and ofloxacin), radiometric method); 100 µg/mL (≈ 267 µM) (7 drug resistant strain (res to isoniazid, streptomycin, ethambutol, kanamycin, rifampicin, and ethionamide), radiometric method); 100 µg/mL (≈ 267 µM) (Mycobacterium tuberculosis).
